This experiment deals with T1, Acyl-CoA desaturase 1 (Rattus norvegicus, UniProt P07308).
T1 sequence (P07308 whole entry): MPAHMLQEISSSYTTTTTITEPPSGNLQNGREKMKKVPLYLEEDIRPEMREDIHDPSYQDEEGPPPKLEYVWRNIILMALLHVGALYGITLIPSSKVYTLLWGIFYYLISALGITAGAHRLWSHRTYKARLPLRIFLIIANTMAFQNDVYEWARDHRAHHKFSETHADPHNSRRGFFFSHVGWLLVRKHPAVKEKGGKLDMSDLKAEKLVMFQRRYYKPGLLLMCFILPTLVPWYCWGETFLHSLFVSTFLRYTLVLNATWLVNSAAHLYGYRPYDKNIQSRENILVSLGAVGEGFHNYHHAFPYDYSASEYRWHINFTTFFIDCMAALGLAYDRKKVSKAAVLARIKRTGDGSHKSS
Put plainly: Enzymatic Assay. As to conditions: 25 °C. The procedure:
The SCD1 enzymatic assay was done in a volume of 50 μL using 10 μg of RLM (prepared as described above) in a 96-well polypropylene plate (enzyme reaction buffer contains 0.1 M K-Phosphate Buffer, 10 mM ATP, 6 mM MgCl2. 1 mM CoA, 1 mM β-NADH, 1.6 mM L-glutathione, 20 μM Stearoyl-CoA). […] Test compound was then added to the reaction mixture at the selected concentration. After incubation at room temperature for 2 hours, 5 μL 1 N HCl was added to stop the reaction, followed by addition of 25 μL of 10% charcoal. The reaction mixture was then transferred to 96-well Multiscreen plate (Millipore, Cat#MSFCN6B50).

Bounds are passed on as bounds.

One may read the IC50 as the concentration needed to halve the response being measured. Low values mean inhibition by little substance, high ones a need for much substance. Take `Cn1cc(-c2ccc(N3CCC(N4CCc5c(Cl)cc(Cl)cc54)CC3)nn2)cn1` [US9102669, 68]: the IC50 was > 1000 nM.

The values are drawn from BindingDB's records for patent US9102669 (Janssen Pharmaceutica, 2015).
